Assay results: patent US11214803B2, “Modulators of YAP1 expression” (Ionis Pharmaceuticals, Inc., priority 2019, dated 2022)
Marks after values point to notes of the source that are not given here. Strand notation (5' to 3'): a small letter for the sugar, then the base; units joined by * are phosphorothioate-linked, units joined directly phosphodiester-linked; [ ] holds rarer units or linkages, { } end groups; capitals alone tell only the bases. k = constrained ethyl (cEt); [5mC] = 5-methylcytosine; d = 2'-deoxy (DNA)

test system: Yap1 mRNA; experiment: Antisense inhibition of human Yap1 in A-431 cells by cEt gapmers, single dose (Example 2, RTS4814); format: cell-based; conditions: A-431 cells, 5,000 cells per well, free uptake, 2,000 nM modified oligonucleotide, approx. 48 hours, RTS4814, normalized to RIBOGREEN; Table 4; asterisk (*) = targets amplicon region of primer probe set
How it was run: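 A-431 cells (5,000/well) took up 2,000 nM 3-10-3 cEt gapmer by free uptake for ~48 h. Yap1 mRNA was quantified by qRT-PCR with primer probe set RTS4814, normalized to RIBOGREEN total RNA, and reported as % of untreated control.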

Substance | YAP1 (% UTC)
716496 (kG*kA*kA*dG*dA*dG*dA*dT*dT*dT*dT*dA*dT*kG*k[5mC]*k[5mC]; antisense) [Compound 716496] | 19

same assay, conditions: Table 5; A-431 cells, 5,000 cells per well, free uptake, 2,000 nM modified oligonucleotide, approx. 48 hours; RTS4814; normalized to RIBOGREEN; Yap1 mRNA relative to untreated control cells

Substance | YAP1 (% UTC)
716443 (kT*kT*kA*dT*dG*dT*dG*dA*d[5mC]*dT*dA*dA*dT*kG*kA*kT; antisense) [Compound 716443] | 73
716392 (k[5mC]*kT*kG*d[5mC]*d[5mC]*dA*d[5mC]*d[5mC]*d[5mC]*dA*dT*dG*dA*k[5mC]*kG*k[5mC]; antisense) [Compound 716392] | 95
716419 (kT*kT*kT*d[5mC]*d[5mC]*dG*dG*dT*dG*d[5mC]*dA*dT*dG*kT*kG*kT; antisense) [Compound 716419] | 36
716416 (kA*kA*kG*dG*dA*dT*dG*dT*d[5mC]*dA*dG*dA*dA*k[5mC]*kT*k[5mC]; antisense) [Compound 716416] | 45

same assay, conditions: Table 6; A-431 cells, 5,000 cells per well, free uptake, 2,000 nM modified oligonucleotide, approx. 48 hours; RTS4814; normalized to RIBOGREEN; Yap1 mRNA relative to untreated control cells

Substance | YAP1 (% UTC)
716522 (antisense kG*kT*kG*dA*d[5mC]*dT*dG*dA*dA*dA*d[5mC]*dT*d[5mC]*kT*kA*kG) [Compound 716522] | 47
716489 (kA*kG*kT*dT*dA*dA*dT*dT*d[5mC]*dA*dT*dG*d[5mC]*kT*k[5mC]*kG; antisense) [Compound 716489] | 23

same assay, conditions: Table 18; A-431 cells, 5,000 cells per well, free uptake, 2,000 nM modified oligonucleotide, approx. 48 hours; RTS4814; normalized to RIBOGREEN; Yap1 mRNA as percent of untreated control

Substance | YAP1 (% UTC)
1075748 (kG*kT*kA*dA*dA*dT*d[5mC]*dA*dA*dG*dT*dT*dG*k[5mC]*kA*kT; antisense) [Compound 1075748] | 7
1074372 (antisense k[5mC]*kT*kT*dT*dG*dG*dT*dT*dG*dA*dT*dA*dG*kT*kA*kT) [Compound 1074372] | 10
1076548 (antisense k[5mC]*kA*k[5mC]*d[5mC]*dA*dA*d[5mC]*d[5mC]*dT*dG*dT*dT*dA*kA*kG*kG) [Compound 1076548] | 106
1075556 (kT*kG*kG*d[5mC]*dA*dA*dA*dA*dG*dA*dG*dT*dG*kG*kT*kG; antisense) [Compound 1075556] | 68

same assay, conditions: Table 19; A-431 cells, 5,000 cells per well, free uptake, 2,000 nM modified oligonucleotide, approx. 48 hours; RTS4814; normalized to RIBOGREEN; Yap1 mRNA as percent of untreated control

Substance | YAP1 (% UTC)
1074437 (kA*k[5mC]*kA*dT*dG*dA*dA*dG*d[5mC]*dA*dT*d[5mC]*dT*kG*kA*k[5mC]; antisense) [Compound 1074437] | 4* % UTC
1076357 (kT*k[5mC]*k[5mC]*dA*dA*dA*dA*dA*d[5mC]*dT*dT*d[5mC]*dT*kT*kA*kG; antisense) [Compound 1076357] | 22 % UTC
1075077 (antisense kT*kA*kT*dA*d[5mC]*dG*dG*dT*d[5mC]*d[5mC]*dA*dT*dA*kA*k[5mC]*kA) [Compound 1075077] | 35 % UTC

same assay, conditions: Table 20; Yap1 mRNA, percent of untreated control; 3-10-3 cEt gapmers targeting SEQ ID NO.: 1 and 2

Substance | YAP1 (% UTC)
1076294 (kT*kA*kT*dA*dT*dT*dA*dG*dT*dG*d[5mC]*d[5mC]*d[5mC]*k[5mC]*k[5mC]*kT; antisense) [Compound 1076294] | 6
1076230 (kG*kA*kA*dT*dT*dA*dA*d[5mC]*d[5mC]*dT*d[5mC]*dA*dG*kT*kG*kA; antisense) [Compound 1076230] | 50
1075078 (antisense k[5mC]*kA*kA*d[5mC]*dT*dA*dT*dA*d[5mC]*dG*dG*dT*d[5mC]*k[5mC]*kA*kT) [Compound 1075078] | 3
1074406 (antisense kA*kA*kA*dG*dT*dA*dT*d[5mC]*dT*dT*dG*d[5mC]*dT*kG*kG*kA) [Compound 1074406] | 16

same assay, conditions: Table 21; Yap1 mRNA, percent of untreated control; 3-10-3 cEt gapmers targeting SEQ ID NO.: 1 and 2

Substance | YAP1 (% UTC)
1076423 (k[5mC]*k[5mC]*kT*dG*dA*dA*d[5mC]*d[5mC]*dT*dT*d[5mC]*dT*dG*kG*kA*kT; antisense) [Compound 1076423] | 93
1075911 (kT*kG*kA*d[5mC]*dA*dA*dA*dA*d[5mC]*dA*dG*dG*d[5mC]*kA*k[5mC]*k[5mC]; antisense) [Compound 1075911] | 41
1076391 (k[5mC]*kA*kA*dA*dT*dA*dT*dA*dG*dT*dT*dA*dG*k[5mC]*k[5mC]*kT; antisense) [Compound 1076391] | 22

same assay, conditions: Table 22; Yap1 mRNA as percent of untreated control; 3-10-3 cEt gapmers; single dose

Substance | YAP1 (% UTC)
1075976 (kA*kT*kT*dA*dA*dA*dA*dG*dT*d[5mC]*dG*dG*dG*k[5mC]*k[5mC]*kA; antisense) [Compound 1075976] | 92
1075016 (antisense kT*k[5mC]*kA*dG*dA*dA*dT*dA*dA*dG*dT*dA*dT*kG*kA*kT) [Compound 1075016] | 100
1074952 (antisense kG*kT*kT*dT*dT*dT*dG*dT*d[5mC]*dA*dT*d[5mC]*dA*kG*kG*kT) [Compound 1074952] | 42
1076552 (antisense kA*kT*kG*dT*dA*dT*dA*dA*dA*dT*dA*d[5mC]*d[5mC]*kA*kG*kG) [Compound 1076552] | 7

same assay, conditions: Table 23; Yap1 mRNA as percent of untreated control; 3-10-3 cEt gapmers; single dose

Substance | YAP1 (% UTC)
1075305 (kA*kA*kA*d[5mC]*dG*dA*dA*dA*d[5mC]*dA*d[5mC]*dG*dG*kG*kT*kA; antisense) [Compound 1075305] | 66
1076073 (k[5mC]*kT*kT*dT*dA*dA*dG*dG*dT*d[5mC]*dT*dA*dG*kT*kT*kA; antisense) [Compound 1076073] | 47
1075209 (antisense k[5mC]*kA*kT*d[5mC]*dA*dA*d[5mC]*dA*dA*dT*dG*dG*dT*k[5mC]*kT*kA) [Compound 1075209] | 11
1076521 (antisense kA*k[5mC]*kT*dA*dA*dA*dG*dG*dA*dG*dT*d[5mC]*dA*kT*kG*kA) [Compound 1076521] | 67

same assay, conditions: Table 24; Yap1 mRNA as percent of untreated control; 3-10-3 cEt gapmers targeting SEQ ID NO.: 1, and 2

Substance | YAP1 (% UTC)
1075434 (antisense kG*kT*kA*dA*dA*dA*dG*dA*dG*dG*dT*dG*d[5mC]*kA*kT*k[5mC]) [Compound 1075434] | 96
1074922 (antisense k[5mC]*kT*kT*dT*d[5mC]*d[5mC]*dA*d[5mC]*dT*d[5mC]*dA*dA*dG*kT*kT*kA) [Compound 1074922] | 87
1074698 (antisense kT*kA*kT*d[5mC]*dA*dA*dG*dG*dT*d[5mC]*d[5mC]*d[5mC]*d[5mC]*k[5mC]*kT*kA) [Compound 1074698] | 78
1075978 (kA*kG*kA*dT*dT*dA*dA*dA*dA*dG*dT*d[5mC]*dG*kG*kG*k[5mC]; antisense) [Compound 1075978] | 11

same assay, conditions: Table 25; Yap1 mRNA as percent of untreated control; 3-10-3 cEt gapmers targeting SEQ ID NO.: 1, and 2

Substance | YAP1 (% UTC)
1075563 (k[5mC]*k[5mC]*kA*dT*dA*dT*dA*dA*d[5mC]*d[5mC]*dA*dG*dT*kT*kT*kT; antisense) [Compound 1075563] | 12
1076075 (kA*k[5mC]*kA*d[5mC]*dA*dA*dG*dG*dG*dT*dT*dG*d[5mC]*kT*kA*kA; antisense) [Compound 1076075] | 38
1075851 (kG*k[5mC]*k[5mC]*dG*dA*dA*dT*dA*dT*dG*dG*dG*dA*kA*kA*kA; antisense) [Compound 1075851] | 70
1076107 (k[5mC]*kA*kT*dT*dA*d[5mC]*d[5mC]*dA*dA*d[5mC]*dT*dT*d[5mC]*kT*kT*k[5mC]; antisense) [Compound 1076107] | 23
1076331 (k[5mC]*kA*kT*dT*dA*dT*dT*d[5mC]*dA*dG*dT*dA*dG*kT*kT*kG; antisense) [Compound 1076331] | 71
1076203 (kG*kT*kT*dA*dA*dT*dA*d[5mC]*dA*dT*dG*dG*d[5mC]*k[5mC]*kA*kA; antisense) [Compound 1076203] | 29
1076171 (kA*kT*kT*dA*dG*dT*dA*dA*dA*dG*dA*dG*dT*kA*k[5mC]*kT; antisense) [Compound 1076171] | 30

same assay, conditions: Table 32; Yap1 mRNA, percent of untreated control; 3-10-3 cEt gapmers targeting SEQ ID NO.: 1, and 2

Substance | YAP1 (% UTC)
1075058 (antisense kA*kT*kT*dA*d[5mC]*dA*dA*dA*dG*dT*dA*dG*d[5mC]*kA*kA*k[5mC]) [compound 1075058] | 66

same assay, conditions: Table 33; Yap1 mRNA, percent of untreated control; 3-10-3 cEt gapmers targeting SEQ ID NO.: 1, and 2

Substance | YAP1 (% UTC)
1074803 (kA*kG*kG*d[5mC]*dA*d[5mC]*dT*dA*d[5mC]*dA*dT*dT*dT*kA*kG*kA; antisense) [compound 1074803] | 32
1074739 (kG*kA*k[5mC]*dT*d[5mC]*dT*dT*dA*dG*dG*dT*d[5mC]*dT*k[5mC]*k[5mC]*kT; antisense) [compound 1074739] | 24

same assay, conditions: Yap1 mRNA as percent of untreated control; A-431 cells; 3-10-3 cEt gapmers targeting SEQ ID NO.: 1, and 2; Table 30

Substance | YAP1 (% UTC)
1076240 (kA*kT*kT*dA*dA*dA*dA*dG*d[5mC]*dA*dA*dG*dG*kT*kG*k[5mC]; antisense) [compound 1076240] | 56
1076144 (kT*kT*kT*dT*dA*dT*dA*dG*dG*dG*d[5mC]*dA*dA*kT*kG*kG; antisense) [compound 1076144] | 7

same assay, conditions: Yap1 mRNA as percent of untreated control; A-431 cells; 3-10-3 cEt gapmers targeting SEQ ID NO.: 1, and 2; Table 31

Substance | YAP1 (% UTC)
1075665 (antisense kA*kT*kT*dT*dA*dG*dT*dT*dG*dT*dG*d[5mC]*dA*k[5mC]*kA*kG) [compound 1075665] | 87
